Laboratory results as given in PMC5571359, “Screening the Medicines for Malaria Venture Pathogen Box across Multiple Pathogens Reclassifies Starting Points for Open-Source Drug Discovery” (Antimicrobial Agents and Chemotherapy, 2017).
Like-named read-outs stand apart in the source and are kept apart here.

Experiments:
[1] = test system: NF54-pfs16-LUC-GFP stage IV gametocytes; test: Plasmodium falciparum late stage gametocyte (LSG) image-based assay; format: cell-based; details: for IC50 / inhibition at 20 µM: Plasmodium falciparum; for inhibition at 20 µM: NF54, read-out: percent inhibition at the top screening dose, P. falciparum NF54 LSG
[2] = test system: P. falciparum ABS; details: cited from earlier work; for EC50: ChEMBL Data
[3] = test system: Plasmodium falciparum 3D7 asexual blood stage; details: for IC50: read-out: Antiplasmodial IC50 (ABS), PBox compounds, P. falciparum 3D7; for screening concentrations at which red blood cell (RBC) lysis was witnessed: human
[4] = test system: P. falciparum stage V gametocytes; details: cited from earlier work; for IC50: stage V gametocytes, ref PBox supporting information, read-out: PF stage V GAMS PBox IC50
[5] = test system: liver stage; details: ref Pbox supporting information; cited from earlier work
[6] = test system: HEK293 cells; test: HEK293 resazurin cell cytotoxicity assay; details: for IC50: Homo sapiens; for percent inhibition at the top screening dose, HEK293: reference compound set
[7] = test system: T. b. brucei 427 bloodstream trypanosomes; test: T. b. brucei resazurin viability assay; format: cell-based, Trypanosoma brucei brucei; details: Trypanosoma brucei; for inhibition at 20 µM: read-out: percent inhibition at the top screening dose, T. brucei brucei
[8] = test system: Plasmodium falciparum 3D7 asexual blood stage; test: microbe, parasite or virus in culture
[9] = test system: HepG2; details: ref PBox supporting information, cited from earlier work; for CC50: read-out: HepG2 PBox CC50 µM
[10] = test system: T. cruzi intracellular amastigotes; test: Intracellular anti-Trypanosoma cruzi image-based assay (amastigotes); format: cell-based; details: Trypanosoma cruzi
[11] = test system: 3T3 host cells; test: T. cruzi assay, activity against 3T3 host cells; format: cell-based; details: reference compound set; for IC50: IA = inactive at 16.4 μM
Protocol: page 4: […] Puromycin, 71 chloroquine, artesunate, DHA, pyronaridine and pyrimethamine were also tested in 72 IC50 format to act as internal reference compounds. 73 74 Intracellular anti-Trypanosoma cruzi Assay Protocol 75 The host cell cytoplasm, in which the parasite resides, is identified by the fluorescent 76 marker, HCS CellMask Green. Parasite and host cell nuclei are detected with the 77 fluorescent DNA intercalator, Hoechst 33342. The Opera® High Content Screening 78 System is used to take images of wells and a spot detection algorithm is used to 79 identify parasites within the cytoplasm. 80 81 Briefly, 1x 10^3 3T3 cells were added to collagen coated 384-well plates and following 82 24 hrs incubation at 37 °C, a multiplicity of infection (MOI) of 5:1 parasite: host cells 83 were added to the plate using a Multidrop liquid handler. Following additional 24 hrs 84 incubation, extracellular parasites were washed from the plates and RPMI with no […] 86 added to all wells. The final volume of media in the primary screening assay, before 87 addition of compound, was modified slightly to 55 µL. One µL of compounds, provided 88 by Compounds Australia, were diluted by the addition of 25 µL of sterile water. This […] 91 donovani). Five microliters of this dilution was added to assay plates. The final […] The final concentrations of compounds in the […] Following 48 hrs incubation in the presence 97 of compounds, wells were fixed, stained and read on the Opera® High Content 98 Screening System to assess compound activity. 99 The Z′-factor, as a measure of assay reproducibility, was determined from a plate […] The positive control used to calculate activity against […] To 103 assess the sensitivity of the T. cruzi assay, activity of the reference compounds 104 benznidazole, NFX, posaconazole and puromycin were determined. […] 108 resazurin as a measure of parasite viability. 109 T. b. brucei trypanosomes were cultured in vitro in HM1-9 medium supplemented with […] Fifty-five µL of logarithmic phase […] 112 incubated for 24 hrs at 37°C /5% CO2. Compounds were subsequently added to the […] Following […] 116 37°C / 5% CO2 followed by 22 hrs at room temperature. […] The percent

[12] = test system: L. donovani MHOM/IN/80/DD8 intracellular amastigotes; test: Leishmania donovani intracellular amastigote assay in THP-1 cells; format: cell-based; details: for IC50 / inhibition at 20 µM: Leishmania donovani, reference compound set; for IC50: IA = inactive at 20 μM; for inhibition at 20 µM: THP-1
[13] = 3D7, read-out: Antiplasmodial IC50 (ABS), PBox compounds, P. falciparum 3D7
[14] = HEK293, read-out: HEK % Inhibition 20uM/IC50 Discovery Biology (IA)
[15] = 3D7, read-out: activity against P. falciparum (novel antiplasmodial actives of the tuberculosis set)
[16] = P. falciparum 3D7, ref PBox supporting information, read-out: Pf 3D7 Pbox IC50
[17] = NF54, read-out: IC50 P. falciparum NF54 LSG, reference compound set, 11-point dose response, IA = inactive at 20 μM
[18] = reference compound set, IA = inactive at 20 μM, read-out: IC50 T. brucei brucei trypomastigotes
[19] = 3D7, read-out: IC50 P. falciparum 3D7 ABS
[20] = reference compound set, IA = inactive at 16.4 μM, read-out: IC50 T. cruzi intracellular amastigotes
[21] = THP-1, read-out: IC50 L. donovani n = 1, first test
[22] = THP-1, read-out: IC50 L. donovani n = 2, second test
[23] = first test, 20 μM, read-out: percent inhibition at the top screening dose, L. donovani n = 1
[24] = second test, 20 μM, read-out: percent inhibition at the top screening dose, L. donovani n = 2

O=C(C1CCN(c2nnnn2-c2ccccc2)CC1)N1CCc2ccccc2C1 [MMV009135]
activity in the Discovery Biology stage IV gametocyte (LSG) assay [1]: did not show any activity
EC50 ([2]; NITD, read-out: NITD (ref 94) EC50): 1.3 µM
EC50 ([2]; TCMDC, read-out: TCMDC (ref 93) EX50): 0.71 µM
activity in the Discovery Biology ABS assay [3]: did not show any activity

Cc1ccc(-c2cc(C(=O)Nc3cccnc3)c3cc(Br)ccc3n2)cc1 [MMV016838]
activity in the Discovery Biology stage IV gametocyte (LSG) assay [1]: not to be active
activity against gametocytes (stage V), PBox supporting information ([4]; ref Pbox supporting information): known to be active
activity against liver stage, PBox supporting information [5]: known to be active
IC50 ([2]; Pf 3D7, ref Pathogen Box supporting information, read-out: Pf 3D7 Pbox IC50): 0.1 µM
activity in the Discovery Biology ABS assay [3]: not to be active

COc1ccc(OC)c(NCc2ccc3nc(N)nc(N)c3c2Cl)c1 [MMV675968]
IC50 ([6]; HEK293, read-out: HEK % Discovery Biology IC50): 0.221 µM
IC50 ([7]; read-out: T b.brucei Discovery Biology IC50): 2.07 µM
IC50 [8, 13]: 0.03 µM
IC50 ([8]; 3D7, read-out: Pf 3D7 Discovery Biology IC50, P. falciparum 3D7 asexual blood stage): 0.033 µM
HepG2 PBox CC20 ([9]; HepG2): 3.4 µM
IC50 ([10]; intracellular amastigotes, read-out: T cruzi Discovery Biology IC50): 1.33 µM
SI HEK (P. falciparum 3D7) ([3]; HEK293): 7.4
SI HepG2 (P. falciparum 3D7) ([3]; HEPG2 (PBox data)): 113

C[C@H](C(N)=O)N1CCCC[C@@H]1c1ccc(OCc2cccc(F)c2)cc1 [MMV676270]
activity in the Discovery Biology stage IV gametocyte (LSG) assay [1]: no activity
IC50 [6, 14]: > 20 µM
IC50 [5]: 1.77 µM
CC50 [9]: > 10 µM
EC50 ([2]; P. falciparum, read-out: TCMDC (ref 93) EX50): 0.99 µM
IC50 ([2]; read-out: literature ABS activity): 0.99 µM
activity in the Discovery Biology ABS assay [3]: no activity

c1ccc(C[C@@H]2CN(c3nccc(Oc4ccc(-n5ccnc5)cc4)n3)CCN2)cc1 [MMV687749]
IC50 [8, 13]: 2 µM
IC50 [8, 15]: < 2 µM
CC50 ([9]; HepG2 cytotoxicity): 29 µM
IC50 [3]: 2.08 µM

Cc1cnc(N2CCN[C@@H](Cc3ccccc3)C2)nc1Oc1ccc(-n2ccnc2)cc1 [MMV687765]
IC50 ([1]; NF54, read-out: Pf Stage IV GAMS Discovery Biology IC50 µM, stage IV gametocytes, Discovery Biology): 4.28 µM
IC50 [8, 13]: 2 µM
IC50 [8, 15]: < 2 µM
CC50 ([9]; HepG2 cytotoxicity): 14.1 µM
IC50 [3]: 2.01 µM

CCc1ccc(C(NCc2nc(N)nc(N(C)C)n2)C(C)C)cc1 (stereo not shown) [MMV1019989]
IC50 [6, 14]: > 20 µM
IC50 [4]: 0.076 µM
IC50 [2, 16]: > 2 µM
screening concentrations at which red blood cell (RBC) lysis was witnessed [3]: ≥ 2 µM

CNC(=O)CNc1nc(-c2ccccn2)nc2scc(-c3ccccc3)c12 [MMV1029203]
IC50 [6, 14]: > 20 µM
IC50 [4]: 0.84 µM
IC50 [2, 16]: > 2 µM
screening concentrations at which red blood cell (RBC) lysis was witnessed [3]: ≥ 2 µM

CCNC(=O)C(C)Nc1nc(-c2cccnc2)nc2sc(C)c(C)c12 (stereo not shown) [MMV1037162]
IC50 [6, 14]: > 20 µM
IC50 [4]: 0.61 µM
IC50 [2, 16]: > 2 µM
screening concentrations at which red blood cell (RBC) lysis was witnessed [3]: ≥ 2 µM

N=C(N)c1ccc(OCCCCCOc2ccc(C(=N)N)cc2)cc1 [Pentamidine, reference compound]
IC50 [1, 17]: 1.43 µM
percent inhibition at the top screening dose, HEK293 [6]: 75%
IC50 ([7]; in-house control stock, not the PBox sample, read-out: IC50 of standard in-house assay control, T. brucei brucei): < 0.001 µM
IC50 [7, 18]: < 0.02 µM
IC50 [8, 19]: 0.01 µM
IC50 [10, 20]: > 16.4 µM
IC50 [11]: > 16.4 µM
IC50 [12, 21]: > 20 µM
IC50 [12, 22]: > 20 µM
activity against L. donovani at 20 μM ([12]; PBox sample, 20 μM): did not show activity

CC[C@@H]([C@H](C)O)n1ncn(-c2ccc(N3CCN(c4ccc(OC[C@@H]5CO[C@@](Cn6cncn6)(c6ccc(F)cc6F)C5)cc4)CC3)cc2)c1=O [Posaconazole, reference compound]
inhibition at 20 µM [1]: 63%
IC50 [7, 18]: > 20 µM
IC50 [8, 19]: 4.1 µM
IC50 ([10]; in-house control stock, not the PBox sample, read-out: IC50 of standard in-house assay control, T. cruzi amastigotes): 0.001 µM
IC50 [10, 20]: 0.172 µM
Emax ([10]; reference compound set, read-out: T. cruzi Emax (maximal % inhibition plateau in dose response curve)): 73%
IC50 [11]: > 16.4 µM
inhibition at 20 µM [12, 23]: 64%
inhibition at 20 µM [12, 24]: 60%

O=C(C1CCCCC1)N1CC(=O)N2CCc3ccccc3C2C1 (stereo not shown) [Praziquantel, reference compound]
IC50 [1, 17]: > 20 µM
IC50 [7, 18]: > 20 µM
IC50 [8, 19]: > 20 µM
IC50 [10, 20]: > 16.4 µM
IC50 [11]: > 16.4 µM
IC50 [12, 21]: > 20 µM
IC50 [12, 22]: > 20 µM

COc1cc(NC(C)CCCN)c2ncccc2c1 (stereo not shown) [Primaquine, reference compound]
inhibition at 20 µM [1]: 96%
inhibition at 20 µM ([7]; reference compound set): 91%
inhibition at 20 µM ([8]; 3D7, read-out: percent inhibition at the top screening dose, P. falciparum 3D7 ABS): 91%
inhibition at 16.4 µM ([10]; reference compound set, 16.4 μM, read-out: percent inhibition at the top screening dose, T. cruzi intracellular amastigotes): 94%
inhibition at 16.4 µM ([11]; 16.4 μM, read-out: percent inhibition at the top screening dose, 3T3 host cells): 73%
inhibition at 20 µM [12, 23]: 33%
inhibition at 20 µM [12, 24]: 79%

CCN(CC)CCCCCCNc1cc(OC)cc2c(C)ccnc12 [Sitamaquine, reference compound]
IC50 [1, 17]: 0.982 µM
percent inhibition at the top screening dose, HEK293 [6]: 100%
inhibition at 20 µM ([7]; reference compound set): 91%
IC50 ([8]; 3D7, read-out: IC50 P. falciparum 3D7 ABS, reference compound set, 11-point dose response, IA = inactive at 20 μM): 2.03 µM
IC50 [10, 20]: > 16.4 µM
IC50 [11]: > 16.4 µM
IC50 [12, 21]: > 20 µM
IC50 [12, 22]: > 20 µM

[H]/N=C(/N)N[C@H]1[C@H](O)[C@@H](O)[C@H](O[C@@H]2O[C@@H](C)[C@](O)(C=O)[C@H]2O[C@@H]2O[C@@H](CO)[C@H](O)[C@@H](O)[C@@H]2NC)[C@@H](N/C(N)=N\[H])[C@@H]1O [Streptomycin, reference compound]
inhibition at 20 µM [1]: 41%
IC50 [7, 18]: > 20 µM
IC50 [8, 19]: > 20 µM
IC50 [10, 20]: > 16.4 µM
IC50 [11]: > 16.4 µM
IC50 [12, 21]: > 20 µM
IC50 [12, 22]: > 20 µM

Cc1ccc(C(=O)Nc2ccc(S(=O)(=O)O)c3cc(S(=O)(=O)O)cc(S(=O)(=O)O)c23)cc1NC(=O)c1cccc(NC(=O)Nc2cccc(C(=O)Nc3cc(C(=O)Nc4ccc(S(=O)(=O)O)c5cc(S(=O)(=O)O)cc(S(=O)(=O)O)c45)ccc3C)c2)c1 [Suramin, reference compound]
IC50 [1, 17]: > 20 µM
IC50 ([7]; read-out: IC50 T. brucei brucei trypomastigotes): 0.11 µM
IC50 [8, 19]: > 20 µM
IC50 [10, 20]: > 16.4 µM
IC50 [11]: > 16.4 µM
IC50 [12, 21]: > 20 µM
IC50 [12, 22]: > 20 µM
